Legend:
Human HDAC2 = target: T1, Human HDAC2 (Homo sapiens, UniProt Q92769); test: In vitro HDAC2 inhibition, fluorogenic peptide assay; format: biochemical; conditions: for IC50: read-out: IC50 (nM) of enzyme activity HDAC2
T1 construct: Full length with C-terminal His tag, MW=60 kDa; His (C); purchased BioMol SE-500; host or cells: Sf9 cells, baculovirus
Description: (§1) All HDAC assays were performed using acetylated AMC-labeled peptide substrate: • Substrate for isoforms HDAC1, 2, 3, 4, 5, 6, 7, 9, 10, 11 and HeLa nuclear extract assays: Acetylated fluorogenic peptide from p53 residues 379-382 (RHKKAc) (BioMol. Cat. # KI-104). • Substrate for HDAC8 assays: Acetylated fluorogenic peptide from p53 residues 379-382 (RHKAcKAc) (BioMol. Cat. # KI-178).
(§2) Enzymes: • HDAC1 assay: 75 nM Human HDAC1 (GenBank Accession No. NM_004964): Full length with C-terminal GST tag, MW=79.9 kDa, expressed by baculovirus expression system in Sf9 cells (BioMol. Cat. # SE-456). • HDAC2 assay: 5 nM Human HDAC2 (GenBank Accession No. Q92769): Full length with C-terminal His tag, MW=60 kDa, expressed by baculovirus expression system in Sf9 cells (BioMol. Cat. # SE-500). • HDAC3 assay: 2.3 nM Human HDAC3/NcoR2 (GenBank Accession No. NM_003883 for HDAC3, GenBank Accession No.NM_006312 for NcoR2): Complex of human HDAC3, full length with C-terminal His tag, MW=49.7 kDa, and human NCOR2, N-terminal GST tag, MW=39 kDa, co-expressed in baculovirus expression system (BioMol. Cat. # SE-507). • HDAC4 assay: 266 nM Human HDAC4 (GenBank Accession No. NM_006037): Amino acids 627-1085 with N-terminal GST tag, MW=75.2 kDa, expressed in baculovirus expression system (BioMol, Hamburg, Germany). • HDAC5 assay: 588 nM Human HDAC5 (GenBank Accession No. NM_001015053): Full length with Nterminal GST tag, MW=150 kDa, expressed by baculovirus expression system in Sf9 cells (BioMol, Hamburg, Germany). • HDAC6 assay: 13 nM Human HDAC6 (GenBank Accession No. BC069243): Full length with N-terminal GST tag, MW=159 kDa, expressed by baculovirus expression system in Sf9 cells (BioMol. Cat. # SE-508). • HDAC7 assay: 962 nM Human HDAC7 (GenBank Accession No. AY302468): Amino acids 518-end with N-terminal GST tag, MW=78 kDa, expressed in baculovirus expression system (BioMol, Hamburg, Germany). • HDAC8 assay: 119 nM Human HDAC8 (GenBank Accession No. NM018486): Full length, MW=42 kDa, expressed in an E. coli expression system (BioMol. Cat. # SE-145). • HDAC9 assay: 986 nM Human HDAC9 (GenBank Accession No. NM178423): Amino acids 604-1066 with C-terminal His tag, MW=50.7 kDa, expressed in baculovirus expression system (BioMol, Hamburg, Germany). • HDAC10 assay: 781 nM Human HDAC10 (GenBank Accession No. NM_032019): Amino acids 1-631 with Nterminal GST tag, MW=96 kDa, expressed by baculovirus expression system in Sf9 cells (BioMol. Cat. # SE-559). • HDAC11 assay: 781 nM Human HDAC11 (GenBank Accession No. NM_BC009676) with N-terminal GST tag, MW=66 kDa, expressed in baculovirus expression system (BioMol. Cat. # SE-560). • HeLaNuclear Extract assay: 25 ng/μl Nuclear Extract from HeLa Cells: Prepared by high salt extraction of HeLa nuclei (human cervical cancer cell line), this extract is a rich source of HDAC activity (BioMol. Cat. # KI-140).
(§3) The reactions were carried out in a 96-well microplate for fluorometry in a 50 μl reaction volume. After the deacetylation reaction, Fluor-de-Lys-Developer (BioMol Cat. # KI-105) was added to each well to digest the deacetylated substrate, thus producing the fluorescent signal. The reaction was allowed to develop for 45 minutes at 30° C. with 5% CO2; then the fluorescent signal was measured with an excitation wavelength at 360 nm and an emission wavelength at 460 nm in a microplate-reading fluorometer (GeminiXS; Molecular Devices, Sunnyvale, Calif.). […] All experiments were performed in triplicate. IC50 was calculated by fitting the experimental data to a dose-response curve. DMSO was used as negative control; Trichostatin A (Biomol Cat. # GR-309) was used as positive control inhibitor.

Human HDAC3/NcoR2 = target: T2, Human HDAC3/NcoR2 (Homo sapiens, UniProt O15379); test: In vitro HDAC3 inhibition, fluorogenic peptide assay; format: biochemical; conditions: for IC50: read-out: IC50 (nM) of enzyme activity HDAC3
T2 construct: Complex of human HDAC3, full length with C-terminal His tag, MW=49.7 kDa; His (C); purchased BioMol SE-507
T2 sequence (O15379 whole entry): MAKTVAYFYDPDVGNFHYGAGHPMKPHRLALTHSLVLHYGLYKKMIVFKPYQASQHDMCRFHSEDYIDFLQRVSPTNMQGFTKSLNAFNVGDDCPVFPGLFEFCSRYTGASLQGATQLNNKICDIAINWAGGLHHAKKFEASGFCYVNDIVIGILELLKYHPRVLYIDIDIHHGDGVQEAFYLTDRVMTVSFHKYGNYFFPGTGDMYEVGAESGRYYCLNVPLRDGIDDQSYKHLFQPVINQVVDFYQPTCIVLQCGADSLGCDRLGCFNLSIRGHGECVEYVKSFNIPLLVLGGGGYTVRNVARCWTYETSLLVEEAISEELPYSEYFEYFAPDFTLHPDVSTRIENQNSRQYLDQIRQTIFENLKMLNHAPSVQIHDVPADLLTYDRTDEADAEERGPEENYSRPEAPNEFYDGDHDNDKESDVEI
T2 sequence (Q9Y618 395-489 partner limits assumed): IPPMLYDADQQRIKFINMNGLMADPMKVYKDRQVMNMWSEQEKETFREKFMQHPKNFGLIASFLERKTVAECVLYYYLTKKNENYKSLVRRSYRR
Description: as §1, §2, §3

HT-1080 = test: Cancer cell growth inhibition (CellTiter-Glo), HT-1080; format: cell-based; conditions: Homo sapiens; Fibrosarcoma, HT-1080, 72 h treatment
Description: (§4) Cell culture-based assays were used to evaluate the ability of compounds of the invention to inhibit cancer cell growth.
(§5) Cells were obtained from the American Type Culture Collection (ATCC). Cells were cultured at 37° C. with 5% CO2 in the appropriate growth medium (see table below), and harvested respectively during the logarithmic growth period and counted with hemocytometer. The cell viability was examined by trypan blue exclusion. Cell concentrations were adjusted to 5.56×10^4 cells/ml with respective medium.
(§6) Stock solutions of test compounds and positive drugs Doxorubicin (Zhejiang, Haizheng, China), Cisplatin (Nanjing Zhiyao, China) and Mitomycin (Zhejiang, Haizheng, China) were prepared in dimethyl sulphoxide (DMSO) or PBS at 20 mM.
(§7) In order to determine the IC50 for each compound, experiments were carried out in 96-well plates and the cell lines seeded at a density of 5,000 cells/well. […] All treatments were performed in triplicate. 10 μl of drug solution was added to each well and incubated for 72 hours. At the end of the incubation, 100 μl of the CellTiter-Glo Reagent were added to each well and the contents were mixed for 2 munites on an orbital shaker to induce cell lysis. The plate was incubated at room temperature for 10 minutes to stabilize luminiscent signal, and luminiscent was recorded. […] In order to calculate IC50 values, dose-responsive curves were fitted using nonlinear regression model with a sigmoidal dose response.

PC-3 = test: Cancer cell growth inhibition (CellTiter-Glo), PC-3; format: cell-based, Human; conditions: Homo sapiens; Prostate Cancer, PC-3, 72 h treatment
Description: as §4, §5, §6, §7

NCI-H460 = test: Cancer cell growth inhibition (CellTiter-Glo), NCI-H460; format: cell-based, Human; conditions: Homo sapiens; Lung Cancer, NCI-H460, 72 h treatment
Description: as §4, §5, §6, §7

T1 sequence (Q92769 whole entry): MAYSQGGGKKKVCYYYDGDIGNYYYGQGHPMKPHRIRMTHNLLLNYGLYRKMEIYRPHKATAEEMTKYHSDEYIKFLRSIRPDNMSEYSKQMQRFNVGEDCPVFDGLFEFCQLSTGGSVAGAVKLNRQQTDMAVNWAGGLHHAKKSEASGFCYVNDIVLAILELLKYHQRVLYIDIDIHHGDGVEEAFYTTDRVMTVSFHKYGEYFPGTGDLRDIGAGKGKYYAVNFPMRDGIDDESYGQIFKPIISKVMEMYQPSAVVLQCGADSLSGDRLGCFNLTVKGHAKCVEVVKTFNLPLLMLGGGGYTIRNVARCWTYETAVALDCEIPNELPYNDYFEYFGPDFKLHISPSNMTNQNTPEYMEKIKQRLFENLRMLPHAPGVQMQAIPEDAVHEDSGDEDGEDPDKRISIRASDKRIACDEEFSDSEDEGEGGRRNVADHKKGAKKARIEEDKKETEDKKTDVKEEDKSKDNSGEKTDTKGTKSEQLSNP

Compound	Selectivity against HDAC6 (IC50 HDACx/IC50 HDAC6) HDAC2 (Human HDAC2)	IC50 (Human HDAC2)	Selectivity against HDAC6 (IC50 HDACx/IC50 HDAC6) HDAC3 (Human HDAC3/NcoR2)	IC50 (Human HDAC3/NcoR2)	IC50 (HT-1080)	IC50 (PC-3)	IC50 (NCI-H460)
COc1ccc(-c2cc(-c3ccccc3)c(C(=O)NCCCCCC(=O)NO)[nH]2)cc1 [Compound B, N-[6-(hydroxyamino)-6-oxohexyl]-5-(4-methoxyphenyl)-3-phenyl-1H-pyrrole-2-carboxamide, reference compound]	28.7	918 nM	13.0	415 nM	–	–	–
COc1ccc(-c2cc(-c3ccccc3)[nH]c2C(=O)NCCCCCC(=O)NO)cc1 [Compound A, N-[6-(hydroxyamino)-6-oxohexyl]-3-(4-methoxyphenyl)-5-phenyl-1H-pyrrole-2-carboxamide, reference compound]	64.7	1290 nM	28.6	572 nM	–	–	–
O=C(CCCCCNC(=O)c1[nH]c(-c2ccc(O)cc2)cc1-c1ccsc1)NO [Example 6, N-(5-(hydroxycarbamoyl)pentyl)-5-(4-hydroxyphenyl)-3-(3-thienyl)-1H-pyrrole-2-carboxamide]	–	203 nM	–	71 nM	3.1 µM	26.8 µM	9.38 µM
O=C(CCCCCNC(=O)c1[nH]c(-c2ccccc2)cc1-c1ccc(O)cc1)NO [Example 1, N-(6-(hydroxyamino)-6-oxohexyl)-3-(4-hydroxyphenyl)-5-phenyl-1H-pyrrole-2-carboxamide]	81.1	1140 nM	31.2	437 nM	3 µM	17.9 µM	2.4 µM
O=C(CCCCCNC(=O)c1[nH]c(-c2ccc(O)cc2)cc1-c1ccccc1)NO [Example 2, N-(6-(hydroxyamino)-6-oxohexyl)-5-(4-hydroxyphenyl)-3-phenyl-1H-pyrrole-2-carboxamide]	52.1	396 nM	32.9	250 nM	3.24 µM	26.9 µM	9.41 µM
O=C(CCCCCNC(=O)c1[nH]c(-c2ccsc2)cc1-c1ccc(O)cc1)NO [Example 3, N-(5-(hydroxycarbamoyl)pentyl)-3-(4-hydroxyphenyl)-5-(3-thienyl)-1H-pyrrole-2-carboxamide]	–	1270 nM	–	441 nM	–	–	–
O=C(CCCCCNC(=O)c1[nH]c(-c2ccc(O)cc2)cc1-c1ccoc1)NO [Example 5, 3-(3-furyl)-N-(5-(hydroxycarbamoyl)pentyl)-5-(4-hydroxy-phenyl)-1H-pyrrole-2-carboxamide]	–	56 nM	–	20 nM	3.12 µM	25.8 µM	10.9 µM
O=C(CCCCCNC(=O)c1[nH]c(-c2ccoc2)cc1-c1ccc(O)cc1)NO [Example 4, 5-(3-furyl)-N-(5-(Hydroxycarbamoyl)pentyl)-3-(4-hydroxy-phenyl)-1H-pyrrole-2-carboxamide]	–	864 nM	–	341 nM	–	–	–

— US20150038545A1, “HYDROXYPHENYL PYRROLE COMPOUNDS CONTAINING AN HYDROXAMIC ACID AS HDAC INHIBITORS AND MEDICINAL APPLICATIONS THEREOF” (UNIVERSIDAD DEL PAÍS VASCO, priority 2011, published 2015)
